Legend:
cJun bZIP = assay: CD spectroscopy, binding to cJun bZIP (helicity of heterodimer); design: species or system human; conditions: 20 °C, total peptide 10 μM equimolar, pH 7.4
Source text: Experiments were next undertaken to compare the binding of A-FosW and TBS-optimized HingeW to the cJun bZIP. CD spectroscopy was utilized to measure the global secondary structure of homo- and heterodimeric peptide samples, providing information on global α-helicity and thermal denaturation temperatures (Tm). The HingeW/cJun spectrum was 82% higher in α-helical content relative to the average of the two-component spectra (Figure 5A). […] This occurs as the total peptide concentration of the sample is kept constant (10 μM), meaning that the concentration of each component is halved upon mixing. If a sample component structure is unchanged upon mixing (i.e., no binding occurs), the CD signal for each component will average. The same, though smaller, trend was observed from the A-FosW/cJun spectra, where the α-helicity was 39% greater than the average (Figure 5B). This increased α-helical gain upon binding of HingeW/cJun implies a higher affinity interaction. Of note is that HingeW in isolation is 12.9% less helical relative to A-FosW. The AGADIR helical propensity calculator was used to calculate predicted helicity scores of 14.5 and 13.2 for A-FosW and HingeW, respectively.[42] […]
(§1) increased to the optimum 4 µM in subsequent passages. […] This allows the occurrence of library members to be monitored as winner sequences are selected for. […]

cJun = target: T1, cJun (Homo sapiens, UniProt P05412); assay: CD dimer exchange, competition for cJun; format: binding; conditions: A-FosW added to preformed HingeW/cJun heterodimer; total peptide 10 μM
T1 construct: The human cJun bZIP domain spans from Arg252 to Leu308; His-SUMO (N, cleaved yes); AS cap (two residues Ala-Ser) (N); GAP cap (three residues Gly-Ala-Pro) (C); made in house; host or cells: E. coli (pET21-His-SUMO plasmid)
T1 sequence (P05412 252-308): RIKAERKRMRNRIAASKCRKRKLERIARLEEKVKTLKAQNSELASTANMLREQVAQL
Procedure: Figure 5 TBS winner peptide HingeW binds cJun preferentially over A-FosW. CD spectra (20 °C) show the binding of cJun to either (A) HingeW or (B) A-FosW. […] However, the effect is larger for HingeW, indicating a greater increase in peptide helicity. Similarly, the thermal denaturation of cJun bound to either (C) HingeW or (D) A-FosW is right-shifted from the average of the component peptide denaturation profiles. […]
Direct competition between HingeW and A-FosW for cJun binding was observed using CD dimer exchange experiments in which a solution containing one antagonist/cJun mixture was combined with the other antagonist to observe potential changes in α-helicity, as an indicator of a change in cJun dimerization partner. In this case, when HingeW was mixed with the preformed A-FosW/cJun heterodimer, a 17% increase in helicity was observed, as measured at 222 nm, relative to the average of the component signals (Figure 5E). […]
as §1

increase in α-helical content of heterodimer with cJun relative to average of component spectra (cJun bZIP; 150 mM potassium phosphate, 150 mM KF, 5 mM TCEP): 39%
Fraction helicity of heterodimer with cJun (cJun bZIP): 38.7%
dimer exchange on mixing with preformed heterodimer (cJun): no dimer exchange had occurred
Sequence: LEQRAEELARENEELEKEAEELEQELDELQAEIEQLEERNYALRKEIEDLQKQLEKL [A-FosW, N-terminal AS and C-terminal GAP caps, 6xHis-tagged]
